ChEMBL document CHEMBL3885861, “Open TG-GATES”

Species on record: Rattus norvegicus
Experiment: Open TG-GATES - Regimen: Daily Repeat
Type: toxicity, organism-based, Sprague-Dawley
Design: regimen Daily Repeat, gender Male, age 6 weeks
Details: in vivo, po, 30 mg/kg, route gavage, dose level Middle; for APTT / Bas / Eos / Fbg / Hb / Ht / Lym / MCHC / MCV / Mono / Neu / PT / Plat / RBC / Ret / WBC: tissue Blood; for KIDNEY_L / KIDNEY_R / KIDNEY_TOTAL: tissue Kidney; for LIVER: tissue Liver; for ALP / ALT / AST / BUN / CRE / Ca / Cl / DBIL / GLC / IP / K / LDH / Na / PL / RALB / TBIL / TC / TG / TP / gamma-GTP: tissue Plasma

CS(=O)(=O)Nc1ccc([N+](=O)[O-])cc1Oc1ccccc1 [NIMESULIDE] showed a TERMINAL_BW (72 h, time 3 day) of 222.3 g, an APTT (72 h, time 3 day) of 17.6 s and a Bas (72 h, time 3 day) of 0%. The Eos (72 h, time 3 day) was 1.2%, the Fbg (72 h, time 3 day) was 211.4 mg/dL and the Hb (72 h, time 3 day) was 13.8 g/dL. The Ht (72 h, time 3 day) was 41.1%, the Lym (72 h, time 3 day) was 68.6% and the MCHC (72 h, time 3 day) was 33.6%. The MCV (72 h, time 3 day) was 64 fL, the Mono (72 h, time 3 day) was 10.6% and the Neu (72 h, time 3 day) was 19.4%. For the same compound, the PT (72 h, time 3 day) was 11.3 s, the Plat (72 h, time 3 day) was 114.9 x10_4/uL and the RBC (72 h, time 3 day) was 642.4 x10_4/ul. It also gave a Ret (72 h, time 3 day) of 9%, a WBC (72 h, time 3 day) of 80.8 x10_2/uL and a KIDNEY_L (72 h, time 3 day) of 1 g. It also gave a KIDNEY_R (72 h, time 3 day) of 1.1 g, a KIDNEY_TOTAL (72 h, time 3 day) of 2.1 g and an LIVER (72 h, time 3 day) of 11.4 g. The ALP (72 h, time 3 day) was 888 IU/L, the ALT (72 h, time 3 day) was 38 IU/L and the AST (72 h, time 3 day) was 64.6 IU/L. It also gave a BUN (72 h, time 3 day) of 19.6 mg/dL, a CRE (72 h, time 3 day) of 0.6 mg/dL and a Ca (72 h, time 3 day) of 10.7 mg/dL. The Cl (72 h, time 3 day) was 104 meq/L, the DBIL (72 h, time 3 day) was 0.054 mg/dL and the GLC (72 h, time 3 day) was 196.8 mg/dL. The IP (72 h, time 3 day) was 8.2 mg/dL, the K (72 h, time 3 day) was 4.5 meq/L and the LDH (72 h, time 3 day) was 91.4 IU/L. The Na (72 h, time 3 day) was 140.8 meq/L, the PL (72 h, time 3 day) was 159.2 mg/dL and the RALB (72 h, time 3 day) was 4.1 g/dL. The TBIL (72 h, time 3 day) was 0.4 mg/dL, the TC (72 h, time 3 day) was 90.8 mg/dL and the TG (72 h, time 3 day) was 75.6 mg/dL. For the same compound, the TP (72 h, time 3 day) was 5.7 g/dL, the gamma-GTP (72 h, time 3 day) was 0.8 IU/L and the TERMINAL_BW ([…], time 7 day) was 250.1 g. The TERMINAL_BW ([…], time 14 day) was 313 g, the TERMINAL_BW ([…], time 28 day) was 399.9 g and the APTT ([…], time 7 day) was 17.5 s. For the same compound, the Bas ([…], time 7 day) was 0%, the Eos ([…], time 7 day) was 1.4% and the Fbg ([…], time 7 day) was 221.8 mg/dL. It also gave a Hb ([…], time 7 day) of 14 g/dL, a Ht ([…], time 7 day) of 41.4% and a Lym ([…], time 7 day) of 78.4%. The MCHC ([…], time 7 day) was 33.9%, the MCV ([…], time 7 day) was 63.3 fL and the Mono ([…], time 7 day) was 6%. For the same compound, the Neu ([…], time 7 day) was 14%, the PT ([…], time 7 day) was 11.2 s and the Plat ([…], time 7 day) was 135 x10_4/uL. It also gave an RBC ([…], time 7 day) of 655 x10_4/ul, a Ret ([…], time 7 day) of 6.6% and a WBC ([…], time 7 day) of 109.7 x10_2/uL. The APTT ([…], time 14 day) was 16.8 s, the Bas ([…], time 14 day) was 0% and the Eos ([…], time 14 day) was 1.2%. It also gave a Fbg ([…], time 14 day) of 227.6 mg/dL, a Hb ([…], time 14 day) of 14.2 g/dL and a Ht ([…], time 14 day) of 41.4%. It also gave a Lym ([…], time 14 day) of 76.2%, an MCHC ([…], time 14 day) of 34.4% and an MCV ([…], time 14 day) of 61.6 fL. It also gave a Mono ([…], time 14 day) of 6.6%, a Neu ([…], time 14 day) of 16.4% and a PT ([…], time 14 day) of 11.7 s. For the same compound, the Plat ([…], time 14 day) was 126.4 x10_4/uL, the RBC ([…], time 14 day) was 672.8 x10_4/ul and the Ret ([…], time 14 day) was 6.1%. The WBC ([…], time 14 day) was 127 x10_2/uL, the APTT ([…], time 28 day) was 18.5 s and the Bas ([…], time 28 day) was 0%. It also gave an Eos ([…], time 28 day) of 1%, a Fbg ([…], time 28 day) of 219.2 mg/dL and a Hb ([…], time 28 day) of 15.3 g/dL. For the same compound, the Ht ([…], time 28 day) was 45%, the Lym ([…], time 28 day) was 82.8% and the MCHC ([…], time 28 day) was 34.1%. It also gave an MCV ([…], time 28 day) of 58.1 fL, a Mono ([…], time 28 day) of 6% and a Neu ([…], time 28 day) of 10.4%. For the same compound, the PT ([…], time 28 day) was 11.7 s, the Plat ([…], time 28 day) was 112.1 x10_4/uL and the RBC ([…], time 28 day) was 775.2 x10_4/ul. The Ret ([…], time 28 day) was 2.8%, the WBC ([…], time 28 day) was 129 x10_2/uL and the KIDNEY_L ([…], time 7 day) was 1.1 g. For the same compound, the KIDNEY_R ([…], time 7 day) was 1.1 g, the KIDNEY_TOTAL ([…], time 7 day) was 2.2 g and the KIDNEY_L ([…], time 14 day) was 1.2 g. For the same compound, the KIDNEY_R ([…], time 14 day) was 1.3 g, the KIDNEY_TOTAL ([…], time 14 day) was 2.5 g and the KIDNEY_L ([…], time 28 day) was 1.4 g. For the same compound, the KIDNEY_R ([…], time 28 day) was 1.4 g, the KIDNEY_TOTAL ([…], time 28 day) was 2.8 g and the LIVER ([…], time 7 day) was 13 g. For the same compound, the LIVER ([…], time 14 day) was 17 g, the LIVER ([…], time 28 day) was 17.8 g and the ALP ([…], time 7 day) was 823.8 IU/L. The ALT ([…], time 7 day) was 36.6 IU/L, the AST ([…], time 7 day) was 60.6 IU/L and the BUN ([…], time 7 day) was 21.2 mg/dL. The CRE ([…], time 7 day) was 0.6 mg/dL, the Ca ([…], time 7 day) was 10.6 mg/dL and the Cl ([…], time 7 day) was 106 meq/L. It also gave a DBIL ([…], time 7 day) of 0.018 mg/dL, a GLC ([…], time 7 day) of 208.6 mg/dL and an IP ([…], time 7 day) of 7.5 mg/dL. The K ([…], time 7 day) was 4.5 meq/L, the LDH ([…], time 7 day) was 91.2 IU/L and the Na ([…], time 7 day) was 141.8 meq/L. For the same compound, the PL ([…], time 7 day) was 139.2 mg/dL, the RALB ([…], time 7 day) was 4.1 g/dL and the TBIL ([…], time 7 day) was 0.4 mg/dL. The TC ([…], time 7 day) was 74.2 mg/dL, the TG ([…], time 7 day) was 72.2 mg/dL and the TP ([…], time 7 day) was 5.9 g/dL. The gamma-GTP ([…], time 7 day) was 0.8 IU/L, the ALP ([…], time 14 day) was 888.2 IU/L and the ALT ([…], time 14 day) was 33 IU/L. For the same compound, the AST ([…], time 14 day) was 66.4 IU/L, the BUN ([…], time 14 day) was 23 mg/dL and the CRE ([…], time 14 day) was 0.6 mg/dL. It also gave a Ca ([…], time 14 day) of 10.7 mg/dL, a Cl ([…], time 14 day) of 105 meq/L and a DBIL ([…], time 14 day) of 0.004 mg/dL. It also gave a GLC ([…], time 14 day) of 195.4 mg/dL, an IP ([…], time 14 day) of 7.2 mg/dL and a K ([…], time 14 day) of 4.6 meq/L. For the same compound, the LDH ([…], time 14 day) was 82.2 IU/L, the Na ([…], time 14 day) was 141 meq/L and the PL ([…], time 14 day) was 155.2 mg/dL. The RALB ([…], time 14 day) was 4.1 g/dL, the TBIL ([…], time 14 day) was 0.4 mg/dL and the TC ([…], time 14 day) was 77 mg/dL. It also gave a TG ([…], time 14 day) of 120 mg/dL, a TP ([…], time 14 day) of 6 g/dL and a gamma-GTP ([…], time 14 day) of 1 IU/L. For the same compound, the ALP ([…], time 28 day) was 831.6 IU/L, the ALT ([…], time 28 day) was 37.2 IU/L and the AST ([…], time 28 day) was 65 IU/L. It also gave a BUN ([…], time 28 day) of 25.8 mg/dL, a CRE ([…], time 28 day) of 0.6 mg/dL and a Ca ([…], time 28 day) of 10.5 mg/dL. It also gave a Cl ([…], time 28 day) of 107.2 meq/L, a DBIL ([…], time 28 day) of 0.002 mg/dL and a GLC ([…], time 28 day) of 198.4 mg/dL. It also gave an IP ([…], time 28 day) of 7 mg/dL, a K ([…], time 28 day) of 4.6 meq/L and an LDH ([…], time 28 day) of 92.6 IU/L. The Na ([…], time 28 day) was 144 meq/L, the PL ([…], time 28 day) was 169 mg/dL and the RALB ([…], time 28 day) was 4.1 g/dL. It also gave a TBIL ([…], time 28 day) of 0.4 mg/dL, a TC ([…], time 28 day) of 80.4 mg/dL and a TG ([…], time 28 day) of 159.4 mg/dL. For the same compound, the TP ([…], time 28 day) was 6.3 g/dL and the gamma-GTP ([…], time 28 day) was 1.4 IU/L.
